Where a name gives a salt, the structure may show the parent alone.
Legend:
[1] = system: erythrocytic forms of P. falciparum (strain 3D7); assay: Viability screening of antiplasmodial activity (SYBR-gold DNA quantification, 96 h); assay type: cell-based, Plasmodium falciparum; conditions: for SI (Selectivity index for 3D7 erythrocytic forms versus HEK293 cells): 3D7 versus HEK293 cells; for IC50 / activity at 0.3 µM / activity at 3 µM: Plasmodium falciparum; for IC50: 3D7, strain 3D7, erythrocytic forms; for activity at 0.3 µM / activity at 3 µM: 96 h, strain 3D7, calculated on DMSO controls; for activity at 0.3 µM: read-out: Parasitemia (3D7) at 0.3 µM [%]; for activity at 3 µM: read-out: Parasitemia (3D7) at 3 µM [%]
in vitro = assay type: cell-based, human; conditions: human, HEK293T Viability at 30 µM [%]
Protocol: Cytotoxic effects of test compounds on eukaryotic cells were investigated using a HEK293T cell viability assay. First, the cell density of a HEK293T culture was determined. […] The supernatant was then aspirated and fresh culture medium was added to 200 μL into which the test compounds were previously added. All substances were previously dissolved in DMSO. […] The viability of the cells was then examined by adding PrestoBlue® Cell Viability Agent (Invitrogen, Carlsbad, CA, USA). The supernatant was removed, 10% PrestoBlue® was added in preheated PBS and the culture was incubated for 30 min at 37 °C. In cells with an active metabolism, the PrestoBlue dye is reduced, causing it to fluorescence. The fluorescence (λex = 560 nm, λem = 590 nm) was measured in an EnVision Multilable Plate Reader (Perkin Elmer, Waltham, MA, USA; integration time 0.1 sec/well).

rPfGSK-3 = rPfGSK-3 (Plasmodium falciparum, UniProt O77344); assay: KinaseGlo Plus assay for inhibition of PfGSK-3; assay type: biochemical; conditions: 10 µM; remaining activity, calculated on DMSO controls; Table 3; read-out: rPfGSK-3 Activity at 10 µM [%]
rPfGSK-3, sequence (O77344 entry or part of it): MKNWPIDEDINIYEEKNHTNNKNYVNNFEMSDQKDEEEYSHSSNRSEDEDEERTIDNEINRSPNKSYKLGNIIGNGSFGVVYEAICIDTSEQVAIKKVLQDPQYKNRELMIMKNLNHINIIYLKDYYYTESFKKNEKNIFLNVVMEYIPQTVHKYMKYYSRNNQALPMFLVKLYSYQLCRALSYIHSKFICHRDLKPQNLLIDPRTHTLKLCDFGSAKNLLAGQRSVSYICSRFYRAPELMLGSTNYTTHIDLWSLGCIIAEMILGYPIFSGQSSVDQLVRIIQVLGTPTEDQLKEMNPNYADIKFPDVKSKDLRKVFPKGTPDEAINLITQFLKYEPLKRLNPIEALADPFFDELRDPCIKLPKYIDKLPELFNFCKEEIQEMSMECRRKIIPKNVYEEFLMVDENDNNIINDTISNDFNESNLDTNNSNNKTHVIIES

Compound: N#Cc1c(N)nc2sc(C(=O)Nc3ccc(Cl)cc3)c(N)c2c1-c1cccc(Cl)c1 [Compound 9a, 3,6-Diamino-4-(3-chlorophenyl)-N-(4-chlorophenyl)-5-cyanothieno[2,3-b]pyridine-2-carboxamide]
- SI (Selectivity index for 3D7 erythrocytic forms versus HEK293 cells) [1]: >70
- IC50 [1]: 410 nM
- activity at 0.3 µM [1]: 23.1 ± 10.8%
- activity at 3 µM [1]: 3.7 ± 3.6%
- viability at 48 h, 30 µM (in vitro): 123 ± 8.4%
- remaining activity at 10 µM (rPfGSK-3): 80.3 ± 18.2%

Compound: N#Cc1c(N)nc2sc(C(=O)Nc3ccc(F)cc3)c(N)c2c1-c1ccc(N2CCCC2)cc1Cl [Compound 9aa, 3,6-Diamino-4-[2-chloro-4-(pyrrolidin-1-yl)phenyl]-5-cyano-N-(4-fluorophenyl)thieno[2,3-b]pyridine-2-carboxamide]
- activity at 0.3 µM [1]: 61.8 ± 27.7%
- activity at 3 µM [1]: 5.3 ± 2.6%
- viability at 48 h, 30 µM (in vitro): 74 ± 8.6%
- remaining activity at 10 µM (rPfGSK-3): 101 ± 3.7%

Compound: CN(C)CCN(C)c1ccc(-c2c(C#N)c(N)nc3sc(C(=O)Nc4ccc(F)cc4)c(N)c23)c(Cl)c1 [Compound 9ab, 3,6-Diamino-4-(2-chloro-4-{[2-(dimethylamino)ethyl](methyl)amino}phenyl)-5-cyano-N-(4-fluorophenyl)thieno[2,3-b]pyridine-2-carboxamide]
- activity at 0.3 µM [1]: 16.7 ± 19.5%
- activity at 3 µM [1]: 1.6 ± 11%
- viability at 48 h, 30 µM (in vitro): -1.4 ± 13.1%
- remaining activity at 10 µM (rPfGSK-3): 112 ± 13.9%

Compound: CN(CCNC(=O)OC(C)(C)C)c1ccc(-c2c(C#N)c(N)nc3sc(C(=O)Nc4ccc(F)cc4)c(N)c23)c(Cl)c1 [Compound 9ac, tert-Butyl {2-[(3-chloro-4-{3,6-diamino-5-cyano-2-[(4-fluorophenyl)carbamoyl]thieno[2,3-b]pyridin-4-yl}phenyl)(methyl)amino]ethyl}carbamate]
- activity at 0.3 µM [1]: 30.1 ± 14.2%
- activity at 3 µM [1]: 7.5 ± 5.9%
- viability at 48 h, 30 µM (in vitro): 55.8 ± 25.1%
- remaining activity at 10 µM (rPfGSK-3): 85.7 ± 8.2%

Compound: CN(CCNC(=O)OC(C)(C)C)c1ccc(-c2c(C#N)c(N)nc3sc(C(=O)Nc4ccccc4Cl)c(N)c23)c(Cl)c1 [Compound 9ad, tert-Butyl {2-[(3-chloro-4-{3,6-diamino-2-[(2-chlorophenyl)carbamoyl]-5-cyanothieno[2,3-b]pyridin-4-yl}phenyl)(methyl)amino]ethyl}carbamate]
- activity at 0.3 µM [1]: 57.7 ± 24.1%
- activity at 3 µM [1]: 13.3 ± 9.9%
- viability at 48 h, 30 µM (in vitro): 76.3 ± 24.1%
- remaining activity at 10 µM (rPfGSK-3): 95 ± 10.7%

Compound: CN(CCN)c1ccc(-c2c(C#N)c(N)nc3sc(C(=O)Nc4cccc(Cl)c4)c(N)c23)c(Cl)c1 [Compound 9ae, 3,6-Diamino-4-{4-[(2-aminoethyl)(methyl)amino]-2-chlorophenyl}-N-(3-chlorophenyl)-5-cyanothieno-[2,3-b]pyridine-2-carboxamide hydrochloride]
- activity at 0.3 µM [1]: 1.7 ± 4.2%
- activity at 3 µM [1]: 2.7 ± 7.8%
- viability at 48 h, 30 µM (in vitro): -8.5 ± 7.4%
- remaining activity at 10 µM (rPfGSK-3): 101 ± 20.2%

Compound: CN(C)CCN(C)c1ccc(-c2c(C#N)c(N)nc3sc(C(=O)Nc4cccc(Cl)c4)c(N)c23)c(Cl)c1 [Compound 9af, 3,6-Diamino-4-(2-chloro-4-{[2-(dimethylamino)ethyl](methyl)amino}phenyl)-N-(3-chlorophenyl)-5-cyanothieno[2,3-b]pyridine-2-carboxamide]
- activity at 0.3 µM [1]: 5.8 ± 4.7%
- activity at 3 µM [1]: 4.5 ± 7.4%
- viability at 48 h, 30 µM (in vitro): -7.4 ± 6.4%
- remaining activity at 10 µM (rPfGSK-3): 107 ± 11.2%

Compound: N#Cc1c(N)nc2sc(C(=O)Nc3ccccc3Cl)c(N)c2c1-c1cccc(F)c1 [Compound 9b, 3,6-Diamino-N-(2-chlorophenyl)-5-cyano-4-(3-fluorophenyl)thieno[2,3-b]pyridine-2-carboxamide]
- activity at 0.3 µM [1]: 96 ± 1.9%
- activity at 3 µM [1]: 46 ± 19.7%
- viability at 48 h, 30 µM (in vitro): 101 ± 19.6%
- remaining activity at 10 µM (rPfGSK-3): 102 ± 16.5%

Compound: N#Cc1c(N)nc2sc(C(=O)Nc3ccccc3Cl)c(N)c2c1-c1cccc(Cl)c1 [Compound 9c, 3,6-Diamino-N-(2-chlorophenyl)-4-(3-chlorophenyl)-5-cyanothieno[2,3-b]pyridine-2-carboxamide]
- activity at 0.3 µM [1]: 69.2 ± 26%
- activity at 3 µM [1]: 40 ± 15.9%
- viability at 48 h, 30 µM (in vitro): 99.3 ± 5.3%
- remaining activity at 10 µM (rPfGSK-3): 99 ± 14.1%

Compound: N#Cc1c(N)nc2sc(C(=O)Nc3ccc(F)cc3)c(N)c2c1-c1cccc(Cl)c1 [Compound 9d, 3,6-Diamino-4-(3-chlorophenyl)-5-cyano-N-(4-fluorophenyl)thieno[2,3-b]pyridine-2-carboxamide]
- activity at 0.3 µM [1]: 88.5 ± 17.6%
- activity at 3 µM [1]: 3.5 ± 3.5%
- viability at 48 h, 30 µM (in vitro): 83 ± 21.6%
- remaining activity at 10 µM (rPfGSK-3): 69.7 ± 16.6%

Compound: Cc1cccc(-c2c(C#N)c(N)nc3sc(C(=O)Nc4ccc(Cl)cc4)c(N)c23)c1 [Compound 9e, 3,6-Diamino-N-(4-chlorophenyl)-5-cyano-4-(3-methylphenyl)thieno[2,3-b]pyridine-2-carboxamide]
- SI (Selectivity index for 3D7 erythrocytic forms versus HEK293 cells) [1]: >100
- IC50 [1]: 273 nM
- activity at 0.3 µM [1]: 9.7 ± 6.8%
- activity at 3 µM [1]: 5.6 ± 5.5%
- viability at 48 h, 30 µM (in vitro): 83.3 ± 20.6%
- remaining activity at 10 µM (rPfGSK-3): 106 ± 6.5%

Compound: Cc1cccc(-c2c(C#N)c(N)nc3sc(C(=O)Nc4ccccc4Cl)c(N)c23)c1 [Compound 9f, 3,6-Diamino-N-(2-chlorophenyl)-5-cyano-4-(3-methylphenyl)thieno[2,3-b]pyridine-2-carboxamide]
- activity at 0.3 µM [1]: 80.2 ± 20.3%
- activity at 3 µM [1]: 51.6 ± 15.7%
- viability at 48 h, 30 µM (in vitro): 93.6 ± 29.9%
- remaining activity at 10 µM (rPfGSK-3): 90.9 ± 14.2%

Compound: Cc1cccc(-c2c(C#N)c(N)nc3sc(C(=O)Nc4ccc(F)cc4)c(N)c23)c1 [Compound 9g, 3,6-Diamino-5-cyano-N-(4-fluorophenyl)-4-(3-methylphenyl)thieno[2,3-b]pyridine-2-carboxamide]
- activity at 0.3 µM [1]: 63.8 ± 16.5%
- activity at 3 µM [1]: 3.1 ± 2.7%
- viability at 48 h, 30 µM (in vitro): 67.8 ± 8.1%
- remaining activity at 10 µM (rPfGSK-3): 74.8 ± 21.7%

Compound: N#Cc1c(N)nc2sc(C(=O)Nc3ccc(Cl)cc3)c(N)c2c1-c1cccc(F)c1 [Compound 9h, 3,6-Diamino-N-(4-chlorophenyl)-5-cyano-4-(3-fluorophenyl)thieno[2,3-b]pyridine-2-carboxamide]
- activity at 0.3 µM [1]: 63.2 ± 19.5%
- activity at 3 µM [1]: 3.9 ± 2.9%
- viability at 48 h, 30 µM (in vitro): 90.7 ± 13.2%
- remaining activity at 10 µM (rPfGSK-3): 104 ± 13.3%

Compound: N#Cc1c(N)nc2sc(C(=O)Nc3ccc(F)cc3)c(N)c2c1-c1cccc(F)c1 [Compound 9i, 3,6-Diamino-5-cyano-4-(3-fluorophenyl)-N-(4-fluorophenyl)thieno[2,3-b]pyridine-2-carboxamide]
- activity at 0.3 µM [1]: 65.8 ± 24.6%
- activity at 3 µM [1]: 6.1 ± 4.9%
- viability at 48 h, 30 µM (in vitro): < 50%
- remaining activity at 10 µM (rPfGSK-3): 70.9 ± 19.8%

Compound: CCCCCCCNC(=O)c1sc2nc(N)c(C#N)c(-c3cccc(C)c3)c2c1N [Compound 9k, 3,6-Diamino-5-cyano-N-heptyl-4-(3-methylphenyl)thieno[2,3-b]pyridine-2-carboxamide]
- activity at 0.3 µM [1]: 72.7 ± 28.2%
- activity at 3 µM [1]: 84 ± 27%
- viability at 48 h, 30 µM (in vitro): 54.3 ± 19.1%
- remaining activity at 10 µM (rPfGSK-3): 84.7 ± 10.6%

Compound: Cc1cccc(-c2c(C#N)c(N)nc3sc(C(=O)NC(C)C)c(N)c23)c1 [Compound 9l, 3,6-Diamino-5-cyano-N-isopropyl-4-(3-methylphenyl)thieno[2,3-b]pyridine-2-carboxamide]
- activity at 0.3 µM [1]: 80.6 ± 22%
- activity at 3 µM [1]: 79.8 ± 20.3%
- viability at 48 h, 30 µM (in vitro): 70.6 ± 23%
- remaining activity at 10 µM (rPfGSK-3): 54.1 ± 15.5%

Compound: Cc1cccc(-c2c(C#N)c(N)nc3sc(C(=O)NCCC4CC4)c(N)c23)c1 [Compound 9o, 3,6-Diamino-5-cyano-N-(2-cyclopropylethyl)-4-(3-methylphenyl)thieno[2,3-b]pyridine-2-carboxamide]
- activity at 0.3 µM [1]: 62.5 ± 23.5%
- activity at 3 µM [1]: 40.8 ± 14.3%
- remaining activity at 10 µM (rPfGSK-3): 60 ± 11.2%

Compound: CC(C)(C)OC(=O)N1CCN(c2ccc(-c3c(C#N)c(N)nc4sc(C(=O)Nc5cccc(Cl)c5)c(N)c34)c(Cl)c2)CC1 [Compound 9p, tert-Butyl 4-(3-chloro-4-{3,6-diamino-2-[(3-chlorophenyl)carbamoyl]-5-cyanothieno[2,3-b]pyridin-4-yl}phenyl)piperazine-1-carboxylate]
- activity at 0.3 µM [1]: 48.3 ± 18%
- activity at 3 µM [1]: 5.4 ± 3.2%
- viability at 48 h, 30 µM (in vitro): 104 ± 14.1%
- remaining activity at 10 µM (rPfGSK-3): 111 ± 12.1%

Compound: N#Cc1c(N)nc2sc(C(=O)Nc3cccc(Cl)c3)c(N)c2c1-c1ccc(N2CCNCC2)cc1Cl [Compound 9q, 3,6-Diamino-4-[2-chloro-4-(piperazin-1-yl)phenyl]-N-(3-chlorophenyl)-5-cyanothieno[2,3-b]pyridine-2-carboxamide hydrochloride]
- activity at 0.3 µM [1]: 6.5 ± 3.1%
- activity at 3 µM [1]: 4.9 ± 3%
- viability at 48 h, 30 µM (in vitro): -13.1 ± 5.4%
- remaining activity at 10 µM (rPfGSK-3): 72.6 ± 12.8%

Compound: N#Cc1c(N)nc2sc(C(=O)Nc3cccc(Cl)c3)c(N)c2c1-c1ccc(N2CCOCC2)cc1Cl [Compound 9r, 3,6-Diamino-4-(2-chloro-4-morpholinophenyl)-N-(3-chlorophenyl)-5-cyanothieno[2,3-b]pyridine-2carboxamide]
- activity at 0.3 µM [1]: 45.7 ± 17.2%
- activity at 3 µM [1]: 2.8 ± 3.6%
- viability at 48 h, 30 µM (in vitro): 105 ± 10%
- remaining activity at 10 µM (rPfGSK-3): 108 ± 16.5%

Compound: Nc1c(C(=O)Nc2ccc(Cl)cc2)sc2nc3c(c(-c4ccccc4)c12)CCCC3 [Compound 17d, 3-Amino-N-(4-chlorophenyl)-4-phenyl-5,6,7,8-tetrahydrothieno[2,3-b]quinoline-2-carboxamide]
- activity at 0.3 µM [1]: 6.2 ± 5.7%
- activity at 3 µM [1]: 8.4 ± 17.5%
- remaining activity at 10 µM (rPfGSK-3): 106 ± 10.6%

Source: publication PMC7397174, “4-Arylthieno[2,3-b]pyridine-2-carboxamides Are a New Class of Antiplasmodial Agents” (Molecules, 2020)
